From patent US6562804B2, “Hair-growing agent” (Kyowa Hakko Kogyo Co., Ltd., priority 2001, dated 2003)

Test system: mouse hair follicle epithelial cells
Test: Cell growth-promoting effect on cultured mouse hair follicle epithelial cells (MTT)
Type: cell-based
Conditions: C3H mouse hair follicle epithelial cells, 5 days culture, DMSO control = 100
Method: Mouse hair follicle epithelial cells were separated and cultured according to a modification of the method of Tanigaki, et al. [Archives of Dermatological Research, 284, 290-296 (1992)].
The skin on the back of a 4-days-old C3H mouse (Charles River Japan, Inc.) was cut off and treated with MEM (Eagle's Minimum Essential Medium) containing 500 units/ml Dispase (Godo Shusei Co., Ltd.) and 5% fetal calf serum (FCS) at 4° C. for 16 hours.
Then, the epidermis was stripped from the skin section, and the obtained dermis layer was treated with DMEM (Dulbecco's modified Eagle Medium) containing 0.25% Collagenase N-2 (Nitta Gelatin Co., Ltd.) and 10% FCS at 37° C. for one hour to obtain a dermis suspension. The dermis suspension was filtered through a 212-μm nylon mesh (Nippon Rikagaku Kikai Co., Ltd.) and the filtrate was centrifuged at 1000 rpm for 5 minutes to obtain pellets containing hair follicle tissue. To the pellets was added calcium/magnesium-free PBS (Dulbecco's Phosphate-Buffered Saline) and the pellets were suspended therein using a pipette. The resulting suspension was allowed to stand for 15 minutes to precipitate hair follicle tissue. The same procedure as above (addition of calcium/magnesium-free PBS, suspending by use of a pipette, and precipitation by allowing the suspension to stand for 15 minutes) was repeated three times using the obtained hair follicle tissue.
Then, the hair follicle tissue was treated with a solution containing 0.1% ethylenediaminetetraacetic acid (EDTA) and 0.25% trypsin (Gibco) at 37° C. for 5 minutes. To the resulting mixture was added DMEM containing 10% FCS to prepare a hair follicle tissue cell suspension having a density of 3×10^5 cells/ml. The hair follicle tissue cell suspension was put into wells of a 24-well collagen-coated plate (Iwaki Glass Co., Ltd.) in an amount of 1 ml/well, followed by culturing in 5% CO2 at 37° C. for 24 hours.
During the culturing, the medium was replaced with a fresh one every other day.
As a control, the cells were cultured in the same medium as above except that DMSO alone was added in an amount of 1/100 by volume in place of DMSO containing a phosphatidic acid, and/or procyanidin B-2 or dl-α-tocopherol.
The degree of cell growth was measured according to the method using MTT [3-(4,5-dimethylthiazol-2-yl)-2,5-diphenyl tetrazolium bromide]
To each well of the 24-well microplate (2 cm^2/well) was added a PBS solution of MTT (5 mg/ml) in an amount of 1/10 by volume based on 1 ml of the culture. The plate was shaken to make the mixture homogeneous, followed by culturing in 5% CO2 at 37° C. for 4 hours.

SMILES | Relative cell growth rate based on the control as 100 (active ingredient 1 μmol/l) | Relative cell growth rate based on the control as 100 (active ingredient 30 μmol/l)
CCCCCCCCCCCCCCCCOCC(COP(=O)(O)O)OC (centres unmarked) [1-O-hexadecyl-2-O-methylglyceryl-3-phosphoric acid] | 177 | 
CCCCCCCCCCCCCCCCOCC(COP(=O)(O)O)OC(C)=O (centres unmarked) [1-O-hexadecyl-2-O-acetylglyceryl-3-phosphoric acid] | 155 | 
Oc1cc(O)c2c(c1)O[C@H](c1ccc(O)c(O)c1)[C@H](O)[C@H]2c1c(O)cc(O)c2c1O[C@H](c1ccc(O)c(O)c1)[C@H](O)C2 [Procyanidin B-2, epicatechin-(4β→8)-epicatechin] |  | 310
Cc1c(C)c2c(c(C)c1O)CCC(C)(CCCC(C)CCCC(C)CCCC(C)C)O2 (racemic) [dl-α-Tocopherol, dl-α-tocopherol, reference compound] |  | 184
CCCCCCCC/C=C\CCCCCCCC(=O)OCC(COP(=O)(O)O)OC (centres unmarked) [1-O-oleoyl-2-O-methylglyceryl-3-phosphoric acid] | 163 | 
